Measured values reported in patent US20210293788A1, “METHOD FOR IDENTIFYING A CHEMICAL COMPOUND OR AGENT INDUCING UBIQUITINATION OF A PROTEIN OF INTEREST” (CeMM - Forschungszentrum fur Molekulare Medizin GmbH, priority 2018, published 2021).
“Also recorded” adds a separate entry of the source.

Key:
[1] = system: KBM7 cells; assay: Dose-ranging cellular viability assays in neddylation-impaired isogenic KBM7 cells; format: cell-based, human; settings: for Cytotoxic activity / sensitivity in COPS8- or CAND1-modified cells: KBM7 cells modified in COPS8 or CAND1 versus non-modified control
Procedure: KBM7 cells mutated for five core genes were isolated and the underlying CRISPR-induced mutations were truncations leading to full knockouts (CAND1) or hypomorphic alleles (UBE2M, COPS8, COPS7B, GPS1). […] The observable shift in efficacy was at least 10-fold and up to 1000-fold, thus providing excellent signal to noise ratios. In sum, neddylation-impaired (NEDD^mut) cell line can be applied to find novel, yet uncharacterized MGs.
This is further exemplified when said cells are treated with the compound CC-885 (a molecular glue that reprograms the substrate receptor cereblon/CRBN to degrade GSPT1), or the PROTAC® compound THAL-SNS-032 (known to reprogram the substrate receptor cereblon/CRBN to degrade the cyclin dependent kinase 9, CDK9) (both see appended FIG. 22).
However, not for every cullin RING ligase (CRL), modifications of the COP9 signalosome subunit 8 (COPS8) or CAND1 (Cullin-associated NEDD8-dissociated protein 1; a substrate receptor exchange factor) lead to an ensuing destabilization via auto-degradation. An example for this is the substrate receptor VHL(von-Hippel-Lindau), which is part of the CRL2^VHL ligase complex. […] Therefore, measuring differential sensitivity of cells manipulated to contain altered neddylation states to a molecular glue/PROTAC® compound is a feasible surrogate to measure whether the substrate receptor that is reprogrammed by said molecular glue/PROTAC® undergoes destabilization/auto-degradation upon altering the neddylation states.

[2] = biological target: T1, CRBN (Homo sapiens, UniProt Q96SW2); assay: Stabilization of CRBN by CC-885 pretreatment followed by CSN5i-3 (western blot); format: cell-based; settings: 125 nM CC-885 for 15 or 30 min before 100 nM CSN5i-3 for 2 hours
T1 construct: endogenous in cells; host or cells: wild-type cells (KBM7 by context)
T1 sequence (Q96SW2 whole entry): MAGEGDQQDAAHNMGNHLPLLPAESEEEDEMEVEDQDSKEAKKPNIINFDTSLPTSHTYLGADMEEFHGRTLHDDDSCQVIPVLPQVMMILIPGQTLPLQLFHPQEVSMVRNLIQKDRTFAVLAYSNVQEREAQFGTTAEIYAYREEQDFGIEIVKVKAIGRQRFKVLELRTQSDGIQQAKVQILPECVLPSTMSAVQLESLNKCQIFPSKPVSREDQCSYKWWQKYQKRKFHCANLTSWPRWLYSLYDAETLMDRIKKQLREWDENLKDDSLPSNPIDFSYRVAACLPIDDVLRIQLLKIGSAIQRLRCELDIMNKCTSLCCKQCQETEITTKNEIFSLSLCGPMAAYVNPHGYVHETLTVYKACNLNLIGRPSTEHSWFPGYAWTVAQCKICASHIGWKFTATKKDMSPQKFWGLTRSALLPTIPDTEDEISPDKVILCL
Procedure: Cells were first pretreated with the small-molecule (CC-885) known to recruit a new substrate (GSPT1=Eukaryotic peptide chain release factor GTP-binding subunit ERF3A) to the substrate receptor CRBN of the CRL4^CRBN ligase. Pre-treatment was conducted for either 15 or 30 minutes. Afterwards, cells were treated with the CSN (COP9 signalosome) inhibitor (CNS5i-3) for 2 hours. […] This was shown in FIG. 3 by comparing lane 2 of the CRBN blot (pre-treatment with DMSO/vehicle control) to lanes 4 (15 min pre-treatment) and lane 6 (30 min pre-treatment) of the same western blot. The same blot also documents that the present invention provides for means and methods how to determine the neddylation status of cullins constituting CRLs. As evident from FIG. 3, cells comprising a normal neddylation status or a steady-state neddylation status show two bands corresponding to a non-neddylated and a neddylated cullin, respectively. Average increase of neddylated to non-neddylated approximately 9 kDa. […]

[3] = biological target: T1, CRBN; assay: Re-stabilization of CRBN by small-molecule degraders after CSN5i-3 pretreatment (western blot); format: cell-based; settings: WT cells pretreated 2 h with DMSO, 25, 100 or 500 nM CSN5i-3, then 500 nM compound
Procedure: To explore the re-stabilization of SR upon ligand treatment, WT cells were pretreated with different doses of CSN5i-3 for 2h to firstly induce SR autodegradation. As a proof of principle, the SR CRBN was used, and the autodegradation by WB was checked (FIG. 2B-D).

[4] = biological target: T2, DCAF15 (Homo sapiens, UniProt Q66K64); assay: DCAF15 HiBit/LgBit luciferase assay (knock-in or ectopic, live-cell or lytic detection); format: cell-based
T2 construct: expressed in transfected cells
T2 sequence (Q66K64 whole entry): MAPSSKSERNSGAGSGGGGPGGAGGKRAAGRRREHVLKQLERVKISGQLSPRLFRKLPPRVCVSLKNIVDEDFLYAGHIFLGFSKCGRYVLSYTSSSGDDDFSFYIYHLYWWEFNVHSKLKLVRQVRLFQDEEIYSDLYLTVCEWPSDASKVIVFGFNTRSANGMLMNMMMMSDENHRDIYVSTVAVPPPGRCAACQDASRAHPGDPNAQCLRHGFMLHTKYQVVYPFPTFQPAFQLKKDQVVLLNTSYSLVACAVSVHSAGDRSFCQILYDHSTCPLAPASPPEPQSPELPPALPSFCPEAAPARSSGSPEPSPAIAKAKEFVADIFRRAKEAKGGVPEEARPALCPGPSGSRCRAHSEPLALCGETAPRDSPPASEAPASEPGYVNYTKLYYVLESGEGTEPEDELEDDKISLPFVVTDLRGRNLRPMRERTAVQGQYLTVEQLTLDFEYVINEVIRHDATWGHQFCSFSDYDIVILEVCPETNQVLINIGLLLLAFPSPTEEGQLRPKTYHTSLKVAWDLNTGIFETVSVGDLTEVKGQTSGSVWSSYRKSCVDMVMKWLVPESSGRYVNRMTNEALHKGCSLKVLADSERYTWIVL
Procedure: Generation of HiBit DCAF15 knock-in cells: HEK293t WT cells at 70-80% confluency were transiently transfected in a 6 well plate with a mix of 3 ug Cas9-sgRNA vector (PX458, addgene #48138, containing sgRNA [NT]), 6 ug of single stranded oligonucleotide donor (ssOND, 20 bp homology flanking the cut site) and 3.6 ug polyethylenimine (FIGS. 10 and 12). 72 hrs post-transfection cells were sorted (SH800 Cell sorter, SONY) for GFP positive cells and recovered for 24 hrs in media. Cells were subsequently seeded at a limiting dilution to generate single clones. Clones were tested after outgrowth for HiBit expression by seeding clonal cells in a black clear bottom 384 well plate and adding Nano-Glo HiBit Lytic buffer (Promega, N3030) reconstituted with recombinant LgBit and Nano-Glo HiBit Lytic Substrate in a 1:1 ratio. HiBit-expressing clones were validated by western blotting and detection of luciferase signal (Promega, N2410) at the correct size. For live cell luciferase detection (FIGS. 11 and 13) 7000 HEK293t cells with a HiBit knock-in at the N-terminus of DCAF15 and stable ectopic expression of LgBit were seeded in 10 uL per well into a black, clear-bottom 384 well plate (Corning, #3764) and incubated over night. 20 uL of media containing 1× Endurazine (Promega, N2570) was added to each well and incubated for 1 hour followed by a baseline luciferase measurement using an EnVision plate reader (Perkin Elmer). Subsequently CSN5i-3 or an equal volume of DMSO was added in 10 uL of media to a final concentration of 500 nM in the assay volume of 40 uL. Luciferase signal was measured hourly for 24 hours. For lytic HiBit detection (FIGS. 11 and 14) 10000 cells were seeded in 10 uL per well into a black clear bottom 384 well plate. After recovery cells were treated by addition of iCSN5-3 or an equal volume of DMSO in 10 uL of media to the cells. After the indicated treatment time cells were lysed by adding 20 uL Nano-Glo HiBit Lytic buffer (Promega, N3030) reconstituted with recombinant LgBit and Nano-Glo HiBit Lytic Substrate. Luciferase signal of each well was normalized to the mean DMSO luciferase signal yielding fold-change over DMSO. Luciferase signal was detected essentially as stated for FIG. 13 with the exception that indisulam (Sigma-Aldrich, SML1225) was added together with CSN5i-3 to cells in 10 uL of media to reach the indicated final concentration (FIG. 15). Luciferase signal of each well and timepoint was normalized to the mean DMSO luciferase signal yielding fold-change over DMSO. […] Luciferase signal was detected essentially as stated for FIG. 15 with the exception that indisulam and dCEMM.1 were added together with iCSN5-3 to cells in the 10 uL treatment to a final concertation of 10 uM (FIG. 17). Luciferase signal of each well and timepoint was normalized to the mean DMSO luciferase signal yielding fold-change over DMSO.

[5] = system: CRL substrate receptors (SRs) in KBM7 cells; assay: Global expression proteomics of substrate receptors after CSN5i-3 treatment; format: cell-based, human; settings: 1 μM, 8 h, versus DMSO
Procedure: In order to survey in an unbiased manner the subset of SRs undergoing autodegradation, global expression proteomics was applied to the different genetic backgrounds: WT, COPS8-mutant and CAND1-deficient KBM7 cells. In addition, expression proteomics following cellular treatment with CSN5i-3 was employed (1 μM, 8 h) (FIG. 1G-I).

[6] = system: CRBN; assay: CRBN levels by western blot after CSN5i-3 treatment (autodegradation); format: cell-based, human
From the text: As a first approach, the levels of cereblon (CRBN), the SR of the CRL4^CRBN E3 ligase machinery, were checked by western blot (WB) in the mutant backgrounds. A strong decrease in CRBN levels in the COPS8 (COP9 signalosome complex subunit 8)-mutant cells was observed, and a less prominent downregulation in the CAND1-deficient cells (FIG. 1B). […] The CSN-impaired condition was used as a focus as this condition was sought to chemically mimic the genetic mutants. […] CRBN destabilization following CSN5i-3 treatment were rescued in CUL4A-deficient cells (FIG. 1E) or in cells lacking UBE2G1 (ubiquitin-conjugating enzyme E2 G1), a E2 ubiquitin-conjugating enzyme previously related to target degradation via the CRL4^CRBN ligase (FIG. 1F).

[7] = biological target: T1, CRBN; assay: CRBN HiBit bioluminescence assay in COPS8 knock-out cells (Example 2); format: cell-based; settings: 4 hours of compound treatment
Procedure: Afterwards, CRISPR/Cas9 is used to knock-out the CSN (COP9 signalosome) subunit COPS8 (COP9 signalosome complex subunit 8). Ensuing loss of CRBN HiBit is assayed via immunoblot and loss of bioluminescence. […] After 4 hours of compound treatment, CRBNHiBit levels are assayed via bioluminescence by adding the detection reagent, which consists of a lysis buffer and recombinant LgBit protein. Within 10 minutes after addition of the detection reagent, luminescence is read with a standard plate reader, and is a proxy for drug-induced changes in CRBN levels.

## Cc1ncsc1-c1ccc([C@H](C)NC(=O)[C@@H]2C[C@@H](O)CN2C(=O)[C@@H](NC(=O)COCCCOCCNC(=O)C[C@@H]2N=C(c3ccc(Cl)cc3)c3c(sc(C)c3C)-n3c(C)nnc32)C(C)(C)C)cc1 [ARV-771]
[1]
  Cytotoxic activity / sensitivity in COPS8- or CAND1-modified cells: sensitivity to ARV-771; also recorded: do not display an altered sensitivity

## Cc1ccc(NC(=O)NCc2ccc3c(c2)CN(C2CCC(=O)NC2=O)C3=O)cc1Cl (stereo not drawn) [CC-885]
[1]
  Cytotoxic activity / sensitivity in COPS8- or CAND1-modified cells: reduced activity; also recorded: lose their cytotoxic activity
[2]
  CRBN stabilization (western blot): protects from CRBN auto-degradation; also recorded: CRBN was stabilized upon CC-885 treatment in the presence of CSN5i-3
[3]
  CRBN stabilization (western blot): time-dependent stabilization of CRBN; also recorded: CRBN was stabilized upon CC-885 treatment in cells treated with DMSO, 25 nM, 100 nM and 500 nM CSN5i-3

## CC(C)n1nc(C(F)F)cc1C(=O)Nc1ccc([C@H]2[C@@H](O)CCCc3cncn32)c(-c2ccccc2)c1 [CSN5i-3]
[4]; live cells, HiBit-HA knock-in at DCAF15 locus, 500 nM
  DCAF15 level (luciferase signal) after CSN5i-3: DCAF15 destabilization
[4]; lytic detection, HiBit-HA knock-in at DCAF15 locus
  DCAF15 level (luciferase signal) after CSN5i-3: DCAF15 destabilization
[4]; lytic detection, ectopic overexpression of HiBit-HA-DCAF15
  DCAF15 level (luciferase signal) after CSN5i-3: DCAF15 destabilization
[5]
  CRBN abundance (expression proteomics): Downregulation of CRBN
  Substrate receptors destabilized (expression proteomics): only affected a subset of the SRs associated to each of the cullins
[6]; CUL4A-deficient cells (sgRNA targeting CUL4A)
  CRBN level (western blot) after CSN5i-3: Downregulation of CRBN is rescued
[6]; cells lacking UBE2G1 (sgRNA), 100 nM CSN5i-3, 0, 2, 4 and 6 hours
  CRBN level (western blot) after CSN5i-3: rescued in cells treated with two sgRNAs targeting UBE2G1
[6]; cells treated with DMSO, MLN4924 or CSN5i-3
  CRBN level (western blot): recapitulate CRBN downregulation; also recorded: Downregulation of CRBN is recapitulated

## CC(C)(C)c1cnc(CSc2cnc(NC(=O)C3CCN(CC(=O)NCCOCCOCCOCCNc4cccc5c4C(=O)N(C4CCC(=O)NC4=O)C5=O)CC3)s2)o1 (stereo not drawn) [THAL-SNS-032]
[1]
  Cytotoxic activity / sensitivity in COPS8- or CAND1-modified cells: reduced activity
[3]; listed as SNS-THAL-032
  CRBN stabilization (western blot): time-dependent stabilization of CRBN; also recorded: CRBN was stabilized upon SNS-THAL-032 treatment in cells treated with DMSO, 25 nM and 100 nM CSN5i-3

## Cc1sc2c(c1C)C(c1ccc(Cl)cc1)=N[C@@H](CC(=O)NCCCCCCCCNC(=O)COc1cccc3c1C(=O)N(C1CCC(=O)NC1=O)C3=O)c1nnc(C)n1-2 (stereo partly drawn) [dBET6]
[7]
  CRBN HiBit levels (bioluminescence): quick stabilization of CRBN HiBit levels
[1]
  Cytotoxic activity / sensitivity in COPS8- or CAND1-modified cells: reduced activity; also recorded: lose their cytotoxic activity
[1]; KBM7 cells mutated in CAND1, UBE2M, COPS8, COPS7B or GPS1 versus wild type
  Resistance of mutant cells in cellular viability assay: caused resistance
[3]
  CRBN stabilization (western blot): time-dependent stabilization of CRBN; also recorded: CRBN was stabilized upon dBET6 treatment in cells treated with DMSO, 25 nM and 100 nM CSN5i-3
